Entries after “also recorded” stand apart in the source; their conditions may differ. Read-outs that look alike come from different tables or passages of the source.

The GI50 is the concentration at which growth is held to half of that of the control.

A short description of series [1]: anti-proliferative assays. The format is cell-based. The text has this:
(§1) U.S. Patent Publication No. 2008/0188570 (herein incorporated by reference in its entirety) further discloses more than 50 analogs of XB05 (BX11). […] In some embodiments, the DNMT1 inhibitor is XB05a (BX12).

A short description of series [2]: aqueous stability. The settings on record: addressed by cremaphor/ethanol/NaCl formulation. The format is physicochemical.
Description: as §1

In series [3] the target is T1, DNMT1 (Homo sapiens, UniProt P26358). The series is described as follows: in vitro DNMT1 activity assay. It is filed as biochemical. The text has this: FIG. 9A is a schematic of an exemplary in vitro DNMT activity assay.
(§2) The assays use recombinant Human DNMT1 (FIG. 5A) or nuclear extracts prepared from cells treated with XB05 (BX11) or XB05a (BX12) (FIG. 5B).
Target sequence in this assay (P26358 whole entry): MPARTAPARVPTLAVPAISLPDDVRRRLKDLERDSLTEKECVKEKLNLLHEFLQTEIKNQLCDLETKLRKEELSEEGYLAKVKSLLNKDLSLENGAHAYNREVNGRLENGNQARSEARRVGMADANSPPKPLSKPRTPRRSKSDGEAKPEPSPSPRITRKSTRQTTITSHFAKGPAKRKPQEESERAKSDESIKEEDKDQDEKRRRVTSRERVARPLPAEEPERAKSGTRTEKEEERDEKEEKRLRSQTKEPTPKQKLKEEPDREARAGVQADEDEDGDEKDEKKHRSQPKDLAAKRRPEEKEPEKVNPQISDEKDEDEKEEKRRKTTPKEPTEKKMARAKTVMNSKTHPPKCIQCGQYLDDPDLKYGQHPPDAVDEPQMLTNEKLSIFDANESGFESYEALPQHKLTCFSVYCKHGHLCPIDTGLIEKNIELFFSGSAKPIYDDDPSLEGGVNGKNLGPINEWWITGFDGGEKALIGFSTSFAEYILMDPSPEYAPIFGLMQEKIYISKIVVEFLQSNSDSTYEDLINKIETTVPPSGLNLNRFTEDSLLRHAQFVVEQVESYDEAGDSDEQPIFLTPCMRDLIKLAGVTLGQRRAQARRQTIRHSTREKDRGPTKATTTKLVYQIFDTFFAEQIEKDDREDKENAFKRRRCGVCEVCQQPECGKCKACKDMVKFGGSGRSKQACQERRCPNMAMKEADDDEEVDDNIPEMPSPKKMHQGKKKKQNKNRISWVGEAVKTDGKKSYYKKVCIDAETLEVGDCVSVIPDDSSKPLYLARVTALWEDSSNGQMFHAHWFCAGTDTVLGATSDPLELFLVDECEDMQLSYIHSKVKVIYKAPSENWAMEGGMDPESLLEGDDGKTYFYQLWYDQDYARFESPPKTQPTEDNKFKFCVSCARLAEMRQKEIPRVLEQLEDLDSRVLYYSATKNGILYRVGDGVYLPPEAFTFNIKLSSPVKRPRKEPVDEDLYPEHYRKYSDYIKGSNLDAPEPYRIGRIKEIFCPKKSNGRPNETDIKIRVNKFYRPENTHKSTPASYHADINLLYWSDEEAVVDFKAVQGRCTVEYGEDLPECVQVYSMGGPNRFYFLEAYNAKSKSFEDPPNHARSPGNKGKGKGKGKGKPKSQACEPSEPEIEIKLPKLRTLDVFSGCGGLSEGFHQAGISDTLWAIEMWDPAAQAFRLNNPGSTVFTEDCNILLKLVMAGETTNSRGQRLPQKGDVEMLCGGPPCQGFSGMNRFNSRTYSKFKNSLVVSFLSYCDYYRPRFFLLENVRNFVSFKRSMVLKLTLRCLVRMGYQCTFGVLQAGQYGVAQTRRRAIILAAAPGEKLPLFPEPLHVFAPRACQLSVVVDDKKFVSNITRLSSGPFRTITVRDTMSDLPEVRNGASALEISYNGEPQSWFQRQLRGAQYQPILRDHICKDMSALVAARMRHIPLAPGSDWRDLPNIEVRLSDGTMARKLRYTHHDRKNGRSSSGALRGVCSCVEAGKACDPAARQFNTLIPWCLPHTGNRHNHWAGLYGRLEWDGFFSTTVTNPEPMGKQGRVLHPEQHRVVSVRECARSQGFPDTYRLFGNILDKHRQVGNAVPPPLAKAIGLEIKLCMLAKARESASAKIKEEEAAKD

Series [4] deals with A549 xenografts. The series is described as follows: A549 lung cancer xenograft model.
Description: as §1

The subject of series [5] is Colo-205 xenografts. The series is described as follows: Colo-205 xenografts in nude mice. It is filed as in vivo. The note with it: for non-specific toxicities as judged by body weight: 25 mg/kg daily for 21 days i.v., FIG. 7C; for in vivo antitumor efficacy: 25 mg/kg/day i.v. for 21 days, FIGS. 7A and 7B.
The test system of series [6] is global DNA methylation. As to the kind of experiment: global DNA methylation. It is filed as cell-based. The text has this:
XB05 (BX11) has activities that slightly differ from other agents in this class of compounds. This is illustrated not only by the NCI 60 data, but also by the effects of XB05 (BX11) and 5-aza on cancer cells and tumor xenografts (FIG. 7). […] XB05 (BX11) and 5-aza may inhibit DNMT activity by different mechanisms.

The subject of series [7] is endothelial cell (HUVEC). The series is described as follows: transwell migration and tube formation assay. It is filed as cell-based. The settings on record: 800 nM XB05 (BX11).
For series [8], the system named is several cancer cell lines, including prostate cancer. The series is described as follows: activity against cancer cell lines (Table 2). The format is cell-based.
Series [9] concerns HOP92 cells. As to the kind of experiment: SOX9 siRNA knockdown, cell number and viability. The note with it: 60 nM siRNA 24 hours, then XB05 48 hours. The format is cell-based. The procedure:
In a second set of experiments, HOP92 cells were transfected for 24 hours with 60 nM siRNA against SOX9, control siRNA, or no RNA (mock). Knockdown of SOX9 was confirmed by Western blots (WB). Cells were then treated with XB05 (BX11) as indicated. After 48 hours, the cell number and viability for each sample was determined using an automated cell counter.

The subject of series [10] is GSTP1 promoter from LNCaP cells. The series is described as follows: methylation specific PCR of GSTP1 promoter. The format is cell-based. The note with it: 100 nm XB05 (BX11).
In series [11] the test system is MDA-MB-231. As to the kind of experiment: NCI60 breast cancer panel, cytotoxic effect. The format is cell-based, human. The settings on record: 1 μM BX11, FIG. 4A. The procedure: (§3) FIG. 4A is NCI60 data showing the effect of XB05 (BX11) on proliferation of various breast cancer cell lines. All cells lines are sensitive to XB05 (BX11) cytostatic effects (GI50<100 nM), whereas a few are especially susceptible to cytotoxic effects (e.g., see 1 μM XB05 (BX11) data points).
(§4) BX11 (XB05) has potent antiproliferative and cytotoxic activity on a variety of breast cancer cell types, with some cell types having GI50 values less than or equal to 10 μM. There were several cell lines that seemed particularly sensitive to the cytotoxic effects of BX11 (BX05). […] The MDA-MB-231 cell line is derived from a triple negative breast cancer (TNBC) and MDA-MB-435 was originally described as being derived from a TNBC, although its origin is now uncertain (it is unquestionably derived from the same source as the M14 melanoma cell line and many believe it is a melanoma, although some argue that both cell lines are derived from a breast carcinoma). […] This latter assay is often used to assess activity against the subpopulation of stem-like cancer cells with enhanced tumor-initiating capacity.

Series [12] relates to MDA-MB-435. The series is described as follows: NCI60 breast cancer panel, cytotoxic effect. It is filed as cell-based, human. The settings on record: 1 μM BX11, FIG. 4A. The method, then: as §3, §4
The subject of series [13] is HCT116 xenografts. The series is described as follows: HCT116 xenografts. The settings on record: in vivo.
The test system of series [14] is A549 lung cancer cells. As to the kind of experiment: sensitivity of A549 cells to XB05. It is filed as cell-based. The text has this:
The present invention is based on the discovery that SOX9 expression in cancer cells is correlated with sensitivity to cell killing by XB05 (BX11). The COMPARE algorithm (Andrianasolo et al., J. Nat. Prod. 69:576-579, 2006) was used to search for correlations between response to XB05 (BX11) and gene expression using the NCI 60 cell line screen for XB05 (BX11) and the publicly available microarray studies of the NCI 60 panel. […] High levels of SOX9 expression were associated with high sensitivity to XB05 (BX11) across the 60 cell lines, as shown in FIG. 3. […] The experiments have been repeated multiple times and differences are statistically significant (p<0.05).

For series [15], the system named is MDA-MB-231 breast cancer cells. As to the kind of experiment: soft agar colony formation assay. The settings on record: stained 21 days after plating. The format is cell-based. The procedure:
FIG. 4B are data from soft agar colony formation assays for MDA-MB-231 breast cancer cells. The cells were stained with crystal violet 21 days after plating.
FIG. 4C is a graph of the data from the soft agar colony formation assays for MDA-MB-231 breast cancer cells. The data shown are the mean±standard error (n=3).
as §4

Series [16] relates to breast cancer cell lines. As to the kind of experiment: NCI60 data, proliferation of breast cancer cell lines. The format is cell-based, human. The settings on record: all breast cancer cell lines, FIG. 4A, read-out: GI50 (cytostatic effects). The procedure:
as §3
A variety of different breast cancer cell lines were treated with 1 μM BX11, and the cytotoxic effect of 1 μM BX11 was determined. The cytotoxicity data for each breast cancer cell line was correlated with the SOX9 level present in each cell line prior to treatment.
as §4

Series [17] deals with DU145 and LNCaP prostate cancer cells. As to the kind of experiment: RT-PCR mRNA expression of silenced tumor suppressor genes. The format is cell-based.
For series [18], the system named is HCT116 cells. The series is described as follows: induction of senescence. The format is cell-based. The note with it: 96 h with 100 nM XB05 (BX11).
For series [19], the system named is LLC cells. The series is described as follows: clonogenic survival and MTT proliferation assays. The settings on record: murine lung carcinoma, negative control. It is filed as cell-based. The text has this: (§5) (3a) results from the NCI 60 cell screen showing a good correlation between the levels of expression of SOX9 and cell death induced by XB05 (BX11); (3b) Western blot showing expression of SOX9 in sensitive cell lines; (3c) clonogenic survival assay in cells sensitive or resistant to XB05 (BX11); (3d) MTT proliferation assays in cells sensitive or resistant to XB05 (BX11).
(§6) FIG. 3B are Western blots (WB) confirming expression of Biomarker X (SOX9) protein in the sensitive cell lines. […] Where indicated, HCT116 cells (colon cancer, sensitive to XB05 (BX11)) and LLC cells (murine lung carcinoma, resistant to XB05 (BX11)) are shown as positive and negative controls, respectively. (SOX9 levels were not assayed in LLC cells because they are of mouse origin).
(Tetrazolium dyes change colour on reduction, which living cells bring about.)

In series [20] the test system is HCT116 cells. As to the kind of experiment: clonogenic survival and MTT proliferation assays. It is filed as cell-based. The settings on record: colon cancer, positive control.
Description: as §5, §6

Series [21] has as its target T1, DNMT1. As to the kind of experiment: DNMT1 activity in nuclear extracts from treated cells. The format is cell-based. Also on record: endogenous in cells. The note with it: FIG. 5B.
Description: as §2
Target sequence in this assay (P26358 whole entry, species assumed): as the sequence (P26358 whole entry) above

Series [22] has as its system MDA-MB-231 breast cancer cells. As to the kind of experiment: tumorsphere formation assay. The format is cell-based. The note with it: day 12 after plating. The method, then:
FIG. 4D are data from tumorsphere formation assays for MDA-MB-231 breast cancer cells on day 12 after plating. The data shown are representative images from three separate experiments.
FIG. 4E is a graph of the data from the tumorsphere formation assays for MDA-MB-231 breast cancer cells on day 12 after plating.
as §4

Series [23] has as its system MDA-MB-231 breast cancer cells. As to the kind of experiment: RT-PCR and Western blotting of methylated (repressed) genes. The format is cell-based. The note with it: 1 μM BX11 (XB05), 72 hours, control genes GAPDH and β-actin unchanged. The method, then:
Experiments described above were performed to test the effect of BX11 (XB05) on DNMT1 activity. The expression of a number of methylated (repressed) genes in MDA-MB-231 breast cancer cells was further determined using both RT-PCR and Western blotting following treatment with vehicle (control), 1 μM BX11 (XB05), or 10 μM 5-azacytidine (positive control).
(In general: A western blot detects proteins with antibodies after separation by electrophoresis.)

`CC/C=C\CCC(O)C#CC(F)(F)Br` (centres unmarked) [XB05a (BX12)]: the “activity in anti-proliferative assays compared to XB05 (BX11)” value in [1] is “equivalent or better activity”. The aqueous stability result in [2] is on record as “poor”. Also, the “activity in DNMT1 inhibition assays compared to XB05 (BX11)” value in series [3] is “equivalent or better activity”. In addition, in series [4] (5-aza at 6 mg/kg), the “antitumor activity alone compared with 5-aza alone” value is on record as “more active”. In addition, the myelotoxicity entry in series [4] (data not shown) is “no significant myelotoxicity”. Also, in series [4] (mouse, in vivo), the “toxicity (body weight loss) compared with 5-aza or cisplatin” value is “much less toxicity”. Further, in series [5], the “non-specific toxicities as judged by body weight” value is on record as “no evidence of any severe non-specific toxicities” and the “in vivo antitumor efficacy” value is given as “in vivo antitumor efficacy”.
For the compound `CCCCCC(C#CC(F)(F)Br)OC(C)=O` (racemic) [XB05b (BX17)], in series [5], the “non-specific toxicities as judged by body weight” value was “no evidence of any severe non-specific toxicities” and the “in vivo antitumor efficacy” value was “in vivo antitumor efficacy”.
For the compound `Nc1ncn([C@@H]2O[C@H](CO)[C@@H](O)[C@H]2O)c(=O)n1` [5-aza, 5-azacytidine, reference compound], in series [4] (mouse, in vivo), the maximally tolerated dose is 6 mg/kg. In addition, in [6], the “effect on global DNA methylation” value is recorded as “causes global DNA methylation”. The “activity relative to XB05 (BX11)” value in [6] (5-aza used at higher concentrations than XB05 (BX11)) is “less active”.
On to `CCCCCC(O)C#CC(F)(F)Br` (centres unmarked) [XB05 (BX11)], for which the results for the “endothelial cell function (transwell migration, tube formation)” value in [7] and in series [7] (listed as XB05) were “inhibition; also recorded: inhibitory effects” and “Inhibits endothelial cell activity in in vitro assays”, respectively. Also, in series [7], the “toxicity to HUVECs” value is on record as “non-toxic”. The “potent activity against several cancer cell lines” value in [8] is reported as “Discovered by chance to have potent activity (<100 nM) against”. In series [9], the “anti-proliferative effects after knockdown of SOX9 using a specific siRNA” value was “completely blocked”. Also, the promoter methylation entry in series [10] was “inhibits”. The cell death entry in [11] and in [12] was “significant cell death” in each case. The “tumor necrosis ("hollow" tumors)” value in series [13] is given as “central tumor necrosis”. In addition, the figures for the “sensitivity to XB05 (BX11)” value in series [14], in series [19] and in series [20] were “modest sensitivity”, “resistant” and “sensitive”, respectively. Further, the “colony formation in soft agar” value in series [15] is “inhibit”. The GI50 in [16] was under 100 nM. Further, the “reactivation of silenced tumor suppressor genes” value in series [17] and in series [17] (listed as XB05) was “reactivates” each time. Besides, the entries for the “senescence in cancer cells” value in series [18] and in [18] (listed as XB05) were “induction of senescence; also recorded: induce cellular senescence” and “Induces senescence in cancer cells”, respectively. For the same compound, the DNMT1 activity result is “inhibitory effects” in series [3] (recombinant human DNMT1, FIG. 5A) and “inhibitory effects” in series [21]. Also, the DNMT activity result in [3] (summary statement, assay form not specified) is on record as “Inhibits”. In addition, the “tumor growth delay, alone” value in series [4] (i.v. 25 mg/kg/day x 21, monotherapy) is “significant tumor growth delay”. Besides, the “tumor growth delay, in combination with cisplatin” value in series [4] (i.v. 25 mg/kg/day x 21 plus cisplatin 4 x 4 mg/kg every 3 days) was “significant tumor growth delay”. Also, the figures for the “effect on global DNA methylation” value in series [6] and in series [6] (listed as XB05) were “no obvious effect” and “including no effect on global DNA methylation”, respectively. Also, the tumorsphere growth result in series [22] is reported as “inhibit”. The “expression of genes commonly silenced by methylation” value in series [23] is “re-expressed”; in series [23] (listed as BX11 (XB05)), “specific reactivation”.

Values taken from US9383364B2, “Predictive marker of DNMT1 inhibitor therapeutic efficacy and methods of using the marker” (priority 2011, dated 2016).
